{"source": "patent US20230339878A1", "about": "“SLC26A3 INHIBITORS AND USE THEREOF” (THE REGENTS OF THE UNIVERSITY OF CALIFORNIA, priority 2018, published 2023)", "key": {"[1]": {"test_system": "loperamide-treated wild-type mice", "assay": "Loperamide-induced constipation model in wild-type mice", "type": "in vivo", "conditions": "5 mg/kg oral gavage 1 hour before loperamide, wild-type mice", "method": "Female CD1 mice (age 8-10 weeks) were administered loperamide (0.3 mg/kg, intraperitoneally, Sigma-Aldrich) to produce constipation. Compound A1 (DRAinh-A250) (5 mg/kg, in saline containing vehicle (5% DMSO and 10% Kolliphor HS 15; Sigma-Aldrich)), tenapanor (5 mg/kg, in vehicle), both compounds (5 mg/kg each, in vehicle), or vehicle alone were administered by oral gavage 1 hour before loperamide. After loperamide injection, mice were placed individually in metabolic cages with ad libitum access to food and water. Stool samples were collected for 3 h, and total stool weight and number of fecal pellets were quantified. To measure stool water content, stool samples were dried at 80° C. for 24 h and water content was calculated as [wet weight-dry weight]/wet weight. Similar studies were done in cystic fibrosis (CF) mice (ΔF508 homozygous) lacking functional CFTR.\nConstipation Model in MiceDRAinh-A260 and DRAinh-A270 were tested in a loperamide-induced constipation model in mice. Female CD1 mice (age 8-10 weeks) were administered loperamide (0.3 mg/kg, intraperitoneally, in 5% ethanol in PBS, 0.1 mg/mL final concentration) to produce constipation and vehicle in control mice. DRAinh-A260 (5 mg/kg, in saline with 5% DMSO and 10% Kolliphor HS 15) or DRAinh-A270 (1, 3 or 10 mg/kg, in PBS with 5% DMSO and 20% (2- hydroxypropyl)-β-cyclodextrin) or vehicle alone were administered by oral gavage 1 hour before loperamide (FIG. 11A). After loperamide injection, mice were placed individually in metabolic cages with free access to food and water. Stool samples were collected for 3 hours, and total stool weight and number of fecal pellets were quantified. To measure stool water content, stool samples were dried at 80° C. for 24 hours and water content was calculated as [wet weight-dry weight]/wet weight."}, "[2]": {"test_system": "mouse mid-jejunal closed loops", "assay": "Closed mid-jejunal loop fluid absorption in mice", "type": "in vivo", "conditions": "10 µM intraluminal, 30 min", "method": "(§1) Female CD1 mice (age 8-10 weeks) were given free access to Pedialyte (per liter: Na^+ 45 mEq, Cl^- 35 mEq, K^+ 20 mEq, dextrose 25 g; Abbott, Abbot Park, IL) but not solid food for 48 h before experiments. Mice were treated with 500 µL mineral oil once a day rectally (last dose 12 h before surgeries) during this period to evacuate the colon. Closed intestinal loops were isolated as described. Mice were anesthetized with isoflurane and body temperature was maintained during surgery at 36-38° C. using a heating pad. A small abdominal incision was made to expose the distal colon, and one closed distal colonic loop (length 1.5-2 cm) was isolated with sutures in each mouse. Loops were injected with 100 µL phosphate-buffered saline (PBS, pH: 7.4, in mM: 137 NaCl, 2.7 KCl, 8 Na2HPO4, 1.8 KH2PO4, 1 CaCl2, 0.5 MgCl2) without and with 10 µM Compound A1 and/or 10 µM tenapanor (MedChemExpress, Monmouth Junction, NJ). The abdominal incision was closed with sutures, and mice were allowed to recover from anesthesia. Colonic loops were removed at 0 and 60 min (in separate mice) and loop length and weight were measured to quantify fluid absorption. Luminal fluid was emptied with a syringe and pH was measured immediately using AB15 pH Meter (Thermo Fisher Scientific, South San Francisco, CA). In separate studies, mid-jejunal loops (length 2-3 cm, 3-4 loops per mouse) were isolated as described above, injected with 100 µL PBS without or with 10 µM Compound A1 and/or 10 µM tenapanor, and excised at 0 and 30 min to measure loop length and weight."}, "NHE3": {"target": "T1, NHE3 (Homo sapiens, UniProt P48764)", "T1 sequence (P48764 26-834)": "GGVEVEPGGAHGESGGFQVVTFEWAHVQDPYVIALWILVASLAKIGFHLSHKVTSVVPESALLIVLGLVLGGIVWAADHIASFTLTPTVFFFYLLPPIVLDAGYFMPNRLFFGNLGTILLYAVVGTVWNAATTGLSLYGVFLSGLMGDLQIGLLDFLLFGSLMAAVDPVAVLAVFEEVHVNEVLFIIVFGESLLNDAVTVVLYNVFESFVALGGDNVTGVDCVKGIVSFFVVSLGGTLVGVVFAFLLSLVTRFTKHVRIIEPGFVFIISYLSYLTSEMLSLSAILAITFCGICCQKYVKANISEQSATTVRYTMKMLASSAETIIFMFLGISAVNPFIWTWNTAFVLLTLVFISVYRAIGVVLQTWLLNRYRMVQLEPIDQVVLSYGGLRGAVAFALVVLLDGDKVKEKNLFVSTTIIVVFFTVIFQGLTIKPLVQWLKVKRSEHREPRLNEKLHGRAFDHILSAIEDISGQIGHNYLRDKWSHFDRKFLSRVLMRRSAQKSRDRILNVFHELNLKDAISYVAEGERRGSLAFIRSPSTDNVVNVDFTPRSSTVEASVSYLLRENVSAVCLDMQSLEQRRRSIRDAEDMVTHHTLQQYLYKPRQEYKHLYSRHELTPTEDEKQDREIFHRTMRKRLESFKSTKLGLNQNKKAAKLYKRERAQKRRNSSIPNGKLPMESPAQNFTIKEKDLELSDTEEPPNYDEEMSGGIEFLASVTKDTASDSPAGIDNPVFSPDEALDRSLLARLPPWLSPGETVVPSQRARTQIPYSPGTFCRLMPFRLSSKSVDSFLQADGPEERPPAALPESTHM", "conditions": "Phase 3, IBS-C, treated group (placebo 18.7 %); cited from earlier work"}, "[3]": {"test_system": "mouse distal colonic closed loops", "assay": "Closed distal colonic loop fluid absorption in mice", "type": "in vivo", "conditions": "10 µM intraluminal, 60 min", "method": "as §1\nClosed intestinal loop studies in mice were done to study effects of Compound A1 on fluid absorption. […] Changes in luminal pH were also determined as a semi-quantitative measure of slc26a3-facilitated HCO3^- secretion / C1^- absorption, with slc26a3 inhibition predicted to reduce luminal fluid alkalinization. For these experiments, a phosphate-buffered solution (PBS) without HCO3^- / CO2 was used to avoid confounding effects of luminal carbonic anhydrases. […] Administration of the NHE3 (Na^+/H^+ exchanger 3) inhibitor tenapanor had no effect on weight/length ratio or luminal pH in distal colonic loops."}}, "note": "Entries after “also recorded” stand apart in the source; their conditions may differ."}
{"smiles": "CN1Cc2c(Cl)cc(Cl)cc2[C@H](c2cccc(S(=O)(=O)NCCOCCOCCNC(=O)NCCCCNC(=O)NCCOCCOCCNS(=O)(=O)c3cccc([C@@H]4CN(C)Cc5c(Cl)cc(Cl)cc54)c3)c2)C1", "note": "[tenapanor, reference compound]", "values": [{"measurement": "three-hour stool weight, number of pellets and stool water content", "setting": "[1]", "result": "comparably reduced signs of constipation"}, {"measurement": "three-hour stool weight, number of pellets and stool water content", "setting": "[1]; listed as Tenapanor", "result": "partially prevented"}, {"measurement": "loop weight/length ratio (fluid absorption), mid-jejunal loops", "setting": "[2]", "result": "fluid absorption was abolished; also recorded: blocked absorption in jejunal"}, {"measurement": "luminal fluid pH, mid-jejunal loops", "setting": "[2]", "result": "preventing acidification and producing slight alkalinization"}, {"measurement": "combined pain and stool pattern response rate", "setting": "NHE3", "result": 27, "unit": "%"}, {"measurement": "loop weight/length ratio (fluid absorption), distal colonic loops", "setting": "[3]", "result": "had no effect"}, {"measurement": "luminal pH, distal colonic loops", "setting": "[3]", "result": "had no effect"}]}
